Reference: patent US12083084B2, “Method for enhancing energy production and metabolism in cells” (REPLICON HEALTH OY, priority 2013, dated 2024)
“And” between values parts separate entries of the source, which are not always exact repeats. Equal entries are not always repeated.

How the values were obtained:
[1] = tested on: rat cortical neurons; assay: Protection against NMDA-induced excitotoxity; format: cell-based
Method: Cell culture. Cortical neurons were dissected from P1 rats and cultured in 96-well plates up to 7 days in the medium containing: neurobasal medium, 1.5% B27 supplement, 1 mM L-glutamine, penicillin/streptomycin.
Cell Viability/Cytotoxicity. Cell Viability was Detected by LDH Tests Like in Examples 1.1-1.2.
Cell treatment: concentration of DGAcs (10, 50 and 100 μg/ml) was added into cell culture medium at 4 DIV. After 24 h (at 5 DIV) 25% of medium was changed to fresh containing 1.5× concentration of DGAcs. Same treatment (change 25% with 1.5× concentration) was repeated at 6 DIV. The cells were transferred into Mg^2+-free Locke's buffer containing the same concentrations of DGAcs immediately before imaging experiments (at 7 DIV). For controls the same amount of medium was changed without addition of DGAcs.
In analyzing the results from the test set up starting at 7 DIV with 1 h NMDA stimulation (and 23 h follow up period), separate viability loss caused by CR can be taken into account by indexing 25 μM NMDA and 50 μM NMDA groups with the results of 0 NMDA control (see FIG. 14a). […] Even without correction for CR induced viability loss, DGAcs treatment induces very clear protection against NMDA-induced excitotoxity in 50 μM NMDA group (see FIG. 14b: “Viability after 24 hours with 1 h NMDA stimulation, indexed to 0 NMDA”)

[2] = First set of clinical in vivo experiments, fasting blood test (Example 2.1); design: species or system human; conditions: for Headache after stopping twice a day administration: subjects S1-S3 (N = 3), 20-48 hours after last administration
Method: In the first set of experiments presented in Example 2.1 all the blood measurements were conducted next day after last administration of DGAcs. In the longer experiments doses (3-5 mg/kg) were typically taken once a day (preferably in the evening before going to bed). In shorter 1-4 day experiments doses were taken twice a day, in the morning and before going to bed. In all experiments in Example 2.2 the last DGAcs dose was double in size (some 8 mg/kg), and it was taken in the same morning as the collection of blood samples. Relatively high dose and short time to measurement was chosen in order to see clearer dose response in gene expression from peripheral leukocytes, and also from collected plasma samples.
Eight (8) persons completed controlled clinical testing with standard 10-12 hour fasting diet (f) blood test (sample analytics by United Medix Laboratories, Finland). There were four different types of clinical tests: first a 3 week test with low dose of DGA (N=3), secondly one 11 day test with bigger dose (N=1), and finally a 4 day test with high dose (N=4) and with low dose of DGA (N=2). Subjects 1 and 4 (in table 3) did the first three week test and then some months later also the separate 4 day test.
Daily doses varied from 3-4 mg/kg/day in 3 week test to 6 mg/kg twice a day in 4 day test. General rule in the studies was that the shorter the period the higher the dose. In three week clinical tests fasting blood standard lipid panel and other basic readings were measured at the beginning and at the end of the test period.
In the 4 day tests very wide fasting blood panel consisting of 25 different metrics was measured (see table 3 below), and additionally for some participants full blood count to measure more precise effect on erythrocytes and hemoglobin was carried out.
Unlike in hepatocytes study (Example 1) clinical experiments were conducted in a fasting diet situation. Challenges for obtaining meaningful health indications from DGAcs administration arises from the fact that the study persons (aged 41-73) were all healthy volunteers, i.e. the blood values were mostly at very good levels, and thus improvements from the control are hard to achieve. Nevertheless the results from clinical testing show clear signs on the efficacy of DGA in improving systemic redox state of especially the cardiovascular system and also clear indications of increased overall metabolic flux. Specific markers for functioning of liver, kidneys, pancreas and spleen show improvement in general (see Table 4).

[3] = 4 day, 5-6 mg/kg twice a day, healthy lean subjects S1-S4, fasting blood, change from zero control
[4] = 4 day, 5-6 mg/kg twice a day, healthy lean subjects S1-S4, fasting blood, change from zero control, listed as DGA calcium salt
[5] = S4 (healthy person), after 4 day test, fasting blood

SMILES: O=C(O)[C@H](O)CO [DGA, D-glyceric acid]
- excitotoxity repetition by the private CRO ([1]; confirmatory study, in line with first results): not statistically significant
- fS-Trigly, increases in blood triglycerides ([2]; 5 subjects): Observed 25-50% increases in blood triglycerides
- Headache after stopping twice a day administration ([2]; 4 day test): some symptoms of headache after 20-48
- fS-Lactate dehydrogenase (LDH), average decline ([2]; healthy volunteers (N = 3), 4 day test): some 4%. (Subject 3
- fS-Na (Sodium), average decline ([2]; healthy volunteers (N = 4), 4 day test): ~1.5%.
- fS-Urate (uric acid), average decline ([2]; healthy volunteers (N = 6), 4 day test): test; average decline some 6%.
- fS-Cholesterol, average decline ([2]; healthy volunteers (N = 8)): (only some 3-5%).
- fS-Chol.-HDL, average decline ([2]; healthy volunteers (N = 8), all periods and doses): ~6%.
- Diuretic effects ([2]; non-acute dose): Sodium decline in most
- fS-Urea, average decline ([2]; non-acute dose): some 7-8%.
- CK, creatinine kinase, average reduction in values ([2]; non-acute dose, N = 4): On average 25% reduction in values (N = 4).
- Bilirubin conj., average reduction in values ([2]; non-acute dose, N = 6): On average 20% reduction in values. N = 6
- Bilirubin, average reduction in values ([2]; non-acute dose, N = 6): On average some 20% reduction in values.
- fS-Asat, average reduction in values ([2]; non-acute dose, N = 6): On average 15-20% reduction
- fS-Fe, average reduction in values ([2]; non-acute dose, N = 6): On average 15% reduction in values. N = 6
- fS-Alat ([2]; non-acute dose, N = 8, when values were higher in the recommended range): improvement was observed, when values

SMILES: O.O.O=C([O-])[C@H](O)CO.O=C([O-])[C@H](O)CO.[Ca+2] [DGAcs, D-glyceric acid, calcium salt dehydrate]
- protection against NMDA-induced excitotoxity (LDH viability) ([1]; 25 μM NMDA and 50 μM NMDA groups, 1 h NMDA at 7 DIV + 24 h, indexed to 0 NMDA): very clear and significant protection
- Headache after stopping twice a day administration ([2]; 4 day test): slight headache
- HDL, 4 day change [2, 3]: −5%
- LDL, 4 day change [2, 3]: 2%
- S-Afos, 4 day change [2, 3]: −2%
- S-Alb, 4 day change [2, 3]: −2%
- S-Amyl, 4 day change [2, 3]: 65%
- S-Bil, 4 day change [2, 3]: −12.6% and −19%
- S-Bil-Kj, 4 day change [2, 3]: −17%
- S-CK, 4 day change [2, 3]: −22%
- S-Cal, 4 day change [2, 3]: −2%
- S-GT, 4 day change [2, 3]: 11%
- S-K, 4 day change [2, 3]: −2%
- S-LD (LDH), 4 day change [2, 3]: −4%
- S-Mg, 4 day change [2, 3]: −2%
- S-Na, 4 day change [2, 3]: −1%
- S-Uraat, 4 day change [2, 3]: −9.9% and −5%
- fS-Gluk, 4 day change [2, 3]: 2%
- fS-Kol, 4 day change [2, 3]: −2%
- fS-Krea, 4 day change [2, 3]: −4%
- fS-Pi, 4 day change [2, 3]: 18%
- fS-Transf, 4 day change [2, 3]: 10%
- fS-Transferr.satur., 4 day change [2, 3]: −32%
- fS-Urea, 4 day change [2, 3]: −7%
- HDL, 4 day change [2, 4]: −4.5% and −3.3% and −9.1% and −5.9%
- S-Afos, 4 day change [2, 4]: −2.1% and 0.0% and −5.8% and −6.3%
- S-Alb, 4 day change [2, 4]: −2.2% and 0.0%
- S-Cal, 4 day change [2, 4]: −1.7% and 0.0% and −2.2% and −2.5%
- S-LD (LDH), 4 day change [2, 4]: −3.7% and −4.2% and −4.8%
- S-Mg, 4 day change [2, 4]: −2.4% and 6.3% and −3.6% and 2.2%
- S-Na, 4 day change [2, 4]: −1.4% and −2.1% and 0.7%
- S-Uraat, 4 day change [2, 4]: −5.2% and −3.2% and −12.0% and −9.9%
- fS-Kol, 4 day change [2, 4]: −1.6% and −5.7% and −6.4% and −3.2%
- fS-Krea, 4 day change [2, 4]: −4.4% and −11.1% and −5.0% and −8.5%
- AST/ALT (ratio) after treatment ([2]; S1, earlier 4 day test (zero control 1.36)): 1.05
- AST/ALT [2, 5]: 1.10
- S-Bil [2, 5]: 9.7
- S-Uraat [2, 5]: 246
- fS-Fe [2, 5]: 20.2
- fS-Trigly [2, 5]: 1.73
- average decline in blood urea ([2]; after 4 and 4.5 day administrations): approximately 9%
